Source: US20260125382A1, “COMPOUNDS FOR INHIBITING OR DEGRADING CDK2 AND/OR CDK9 AND MEDICINAL USE THEREOF” (KOREA RESEARCH INSTITUTE OF CHEMICAL TECHNOLOGY, priority 2022, published 2026)

What was measured:
CDK2 = target: T1, CDK2 (Homo sapiens, UniProt P24941); assay: CDK protein degradation activity (Western blotting), CDK2; format: cell-based; settings: MDA-MB-231 cells, 16 hours, Western blot
T1 construct: endogenous in cells; host or cells: MDA-MB-231
Method in brief: (§1)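 CDK2 and CDK9 protein levels measured by Western blot with densitometry, using tubulin as loading reference. Cells were MDA-MB-231, exposed for 16 h to 100 nM, 1 μM or 10 μM compound or to DMSO.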

CDK9 = target: T2, CDK9 (Homo sapiens, UniProt P50750); assay: CDK protein degradation activity (Western blotting), CDK9; format: cell-based; settings: MDA-MB-231 cells, 16 hours, Western blot
T2 construct: endogenous in cells; host or cells: MDA-MB-231
Method in brief: as §1

T2 sequence (P50750 whole entry): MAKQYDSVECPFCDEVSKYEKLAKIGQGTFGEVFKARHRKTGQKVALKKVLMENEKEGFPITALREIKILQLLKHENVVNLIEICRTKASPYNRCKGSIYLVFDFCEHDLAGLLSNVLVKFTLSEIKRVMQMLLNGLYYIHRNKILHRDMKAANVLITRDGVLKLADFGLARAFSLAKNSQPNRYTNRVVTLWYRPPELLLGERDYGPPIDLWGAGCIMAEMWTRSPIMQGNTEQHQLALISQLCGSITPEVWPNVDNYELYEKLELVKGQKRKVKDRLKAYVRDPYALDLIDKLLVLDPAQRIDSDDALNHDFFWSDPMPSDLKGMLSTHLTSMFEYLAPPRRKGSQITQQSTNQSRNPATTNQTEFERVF

Compound | Enzyme degradation CDK2 (% remaining) @ 0.1 μM (CDK2) | Enzyme degradation CDK2 (% remaining) @ 1 μM (CDK2) | Enzyme degradation CDK2 (% remaining) @ 10 μM (CDK2) | Enzyme degradation CDK9 (% remaining) @ 0.1 μM (CDK9) | Enzyme degradation CDK9 (% remaining) @ 1 μM (CDK9) | Enzyme degradation CDK9 (% remaining) @ 10 μM (CDK9)
O=C1CC[C@H](N2C(=O)c3cccc(NCC(=O)N4CCC(CN5CCN(c6ccc(Nc7ncnc8c7ncn8C7CC(NC(=O)c8cccc(F)n8)C7)cc6)CC5)CC4)c3C2=O)C(=O)N1 (stereo partly drawn) [Compound 430, N-((1s,3s)-3-(6-((4-(4-((1-((2-(2,6-dioxopiperidin-3-yl)-1,3-dioxoisoindolin-4-yl)glycyl)piperidin-4-yl)methyl)piperazin-1-yl)phenyl)amino)-9H-purin-9-yl)cyclobutyl)-6-fluoropicolinamide] | 10/10/10% | 10/10/10% | 10/10/10% | 0/0/0% | 0/0/0% | 0/0/0%
O=C1CC[C@H](N2C(=O)c3cccc(CCCN4CCC(CN5CCN(c6ccc(Nc7ncnc8c7ncn8C7CC(NC(=O)c8cccc(F)n8)C7)cc6)CC5)CC4)c3C2=O)C(=O)N1 (stereo partly drawn) [Compound 431, N-((1s,3s)-3-(6-((4-(4-((1-(3-(2-(2,6-dioxopiperidin-3-yl)-1,3-dioxoisoindolin-4-yl)propyl)piperidin-4-yl)methyl)piperazin-1-yl)phenyl)amino)-9H-purin-9-yl)cyclobutyl)-6-fluoropicolinamide] | 30/30/30% | 30/30/30% | 30/30/30% | 0/0/0% | 0/0/0% | 0/0/0%
O=C1CCC(N2C(=O)c3cccc(CCCCN4CCC(CN5CCN(c6ccc(Nc7ncnc8c7ncn8[C@H]7C[C@@H](NC(=O)c8cccc(F)n8)C7)cc6)CC5)CC4)c3C2=O)C(=O)N1 (stereo partly drawn) [Compound 432, N-((1s,3s)-3-(6-((4-(4-((1-(4-(2-(2,6-dioxopiperidin-3-yl)-1,3-dioxoisoindolin-4-yl)butyl)piperidin-4-yl)methyl)piperazin-1-yl)phenyl)amino)-9H-purin-9-yl)cyclobutyl)-6-fluoropicolinamide] | 50% | 40% | 40% | 0/0/0% | 0/0/0% | 0/0/0%
O=C1CC[C@@H](c2ccc(OCC(=O)N3CCC(CCN4CCN(c5ccc(Nc6ncnc7c6ncn7C6CC(NC(=O)Cc7ccccc7)C6)cc5)CC4)CC3)cc2)C(=O)N1 (stereo partly drawn) [Compound 433, N-((1s,3s)-3-(6-((4-(4-(2-(1-(2-(4-(2,6-dioxopiperidin-3-yl)phenoxy)acetyl)piperidin-4-yl)ethyl)piperazin-1-yl)phenyl)amino)-9H-purin-9-yl)cyclobutyl)-2-phenylacetamide] | 80% | 90% | 90% | 20% | 10% | 10%
O=C1CCC(c2ccc(OCC(=O)N3CCC(CCN4CCN(c5ccc(Nc6ncnc7c6ncn7[C@H]6C[C@@H](NC(=O)c7c(Cl)cccc7Cl)C6)cc5)CC4)CC3)cc2)C(=O)N1 (stereo partly drawn) [Compound 434, 2,6-dichloro-N-((1s,3s)-3-(6-((4-(4-(2-(1-(2-(4-(2,6-dioxopiperidin-3-yl)phenoxy)acetyl)piperidin-4-yl)ethyl)piperazin-1-yl)phenyl)amino)-9H-purin-9-yl)cyclobutyl)benzamide] | 50% | 70% | 80% | 10/10/10% | 10/10/10% | 10/10/10%
Cc1cccc(C(=O)NC2CC(n3cnc4c(Nc5ccc(N6CCN(C7CC8(CCN(C(=O)COc9ccc([C@@H]%10CCC(=O)NC%10=O)cc9)CC8)C7)CC6)cc5)ncnc43)C2)n1 (stereo partly drawn) [Compound 435, N-((1s,3s)-3-(6-((4-(4-(7-(2-(4-(2,6-dioxopiperidin-3-yl)phenoxy)acetyl)-7-azaspiro[3.5]nonan-2-yl)piperazin-1-yl)phenyl)amino)-9H-purin-9-yl)cyclobutyl)-6-methylpicolinamide] | 40/40/40% | 40/40/40% | 40/40/40% | 10/10/10% | 10/10/10% | 10/10/10%
O=C1CC[C@@H](c2ccc(OCC(=O)N3CCC(CN4CCN(c5ccc(Nc6ncnc7c6ncn7C6CC(NC(=O)c7cccc(C(F)(F)F)n7)C6)cc5)CC4)CC3)cc2)C(=O)N1 (stereo partly drawn) [Compound 436, N-((1s,3s)-3-(6-((4-(4-((1-(2-(4-(2,6-dioxopiperidin-3-yl)phenoxy)acetyl)piperidin-4-yl)methyl)piperazin-1-yl)phenyl)amino)-9H-purin-9-yl)cyclobutyl)-6-(trifluoromethyl)picolinamide] | 30/30/30% | 30/30/30% | 30/30/30% | 10/10/10% | 10/10/10% | 10/10/10%
O=C1CC[C@@H](c2ccc(OCC(=O)N3CCC(CN4CCN(c5ccc(Nc6ncnc7c6ncn7[C@H]6C[C@@H](NC(=O)c7c(Cl)cccc7Cl)C6)cc5)CC4)CC3)cc2)C(=O)N1 [Compound 437, 2,6-dichloro-N-((1s,3s)-3-(6-((4-(4-((1-(2-(4-(2,6-dioxopiperidin-3-yl)phenoxy)acetyl)piperidin-4-yl)methyl)piperazin-1-yl)phenyl)amino)-9H-purin-9-yl)cyclobutyl)benzamide] | 30% | 40% | 40% | 10/10/10% | 10/10/10% | 10/10/10%
O=C1CC[C@@H](c2ccc(OCC(=O)N3CCC(CCN4CCN(c5ccc(Nc6ncnc7c6ncn7[C@H]6C[C@@H](NC(=O)c7cccc(C(F)(F)F)n7)C6)cc5)CC4)CC3)cc2)C(=O)N1 [Compound 438, N-((1s,3s)-3-(6-((4-(4-(2-(1-(2-(4-(2,6-dioxopiperidin-3-yl)phenoxy)acetyl)piperidin-4-yl)ethyl)piperazin-1-yl)phenyl)amino)-9H-purin-9-yl)cyclobutyl)-6-(trifluoromethyl)picolinamide] | 40% | 50% | 50% | 10/10/10% | 10/10/10% | 10/10/10%
O=C1CC[C@@H](c2ccc(OCC(=O)N3CCC4(CC3)CC(N3CCN(c5ccc(Nc6ncnc7c6ncn7[C@H]6C[C@@H](NC(=O)c7cccc(C(F)(F)F)n7)C6)cc5)CC3)C4)cc2)C(=O)N1 [Compound 439, N-((1s,3s)-3-(6-((4-(4-(7-(2-(4-(2,6-dioxopiperidin-3-yl)phenoxy)acetyl)-7-azaspiro[3.5]nonan-2-yl)piperazin-1-yl)phenyl)amino)-9H-purin-9-yl)cyclobutyl)-6-(trifluoromethyl)picolinamide] | 50/50/50% | 50/50/50% | 50/50/50% | 10/10/10% | 10/10/10% | 10/10/10%
O=C1CC[C@@H](c2ccc(OCC(=O)N3CCC(CN4CCN(c5ccc(Nc6ncnc7c6ncn7[C@H]6C[C@@H](NC(=O)c7cccc(Cl)n7)C6)cc5)CC4)CC3)cc2)C(=O)N1 [Compound 440, 6-chloro-N-((1s,3s)-3-(6-((4-(4-((1-(2-(4-(2,6-dioxopiperidin-3-yl)phenoxy)acetyl)piperidin-4-yl)methyl)piperazin-1-yl)phenyl)amino)-9H-purin-9-yl)cyclobutyl)picolinamide] | 20/20/20% | 20/20/20% | 20/20/20% | 10/10/10% | 10/10/10% | 10/10/10%
N#Cc1cccc(C(=O)N[C@H]2C[C@@H](n3cnc4c(Nc5ccc(N6CCN(CC7CCN(c8ccc9c(c8)CN(C8CCC(=O)NC8=O)C9=O)CC7)CC6)cc5)ncnc43)C2)n1 (stereo partly drawn) [Compound 441, 6-cyano-N-((1s,3s)-3-(6-((4-(4-((1-(2-(2,6-dioxopiperidin-3-yl)-1-oxoisoindolin-5-yl)piperidin-4-yl)methyl)piperazin-1-yl)phenyl)amino)-9H-purin-9-yl)cyclobutyl)picolinamide] | 30% | 30% | 40% | 10/10/10% | 10/10/10% | 10/10/10%
O=C1CC[C@@H](c2ccc(OCC(=O)N3CCC4(CC3)CC(N3CCN(c5ccc(Nc6ncnc7c6ncn7[C@H]6C[C@@H](NC(=O)c7c(Cl)cccc7Cl)C6)cc5)CC3)C4)cc2)C(=O)N1 [Compound 442, 2,6-dichloro-N-((1s,3s)-3-(6-((4-(4-(7-(2-(4-(2,6-dioxopiperidin-3-yl)phenoxy)acetyl)-7-azaspiro[3.5]nonan-2-yl)piperazin-1-yl)phenyl)amino)-9H-purin-9-yl)cyclobutyl)benzamide] | 40/40/40% | 40/40/40% | 40/40/40% | 0/0/0% | 0/0/0% | 0/0/0%
